Read-outs that look alike come from different tables or passages of the source.
Tested on: type 2 herpes simplex strain 3345
Assay: In vitro bioassay: inhibition of virus replication in infected African green monkey kidney cells
Format: cell-based, type 2 herpes simplex virus
Settings: for Inhibition of hsv2, Effect of bendrofluazide: 0.25 mg bendrofluazide/ml liquid medium; for inhibition at 1000 µg/mL: frusemide 1 mg/ml, African green monkey kidney cells
From the text: In vitro bioassays were undertaken to follow the anti-viral activity of a diuretic compound. […] Inhibition of virus replication was scored on the scale: […]

NS(=O)(=O)c1cc2c(cc1C(F)(F)F)NC(Cc1ccccc1)NS2(=O)=O (stereo not drawn) [bendrofluazide]
Inhibition of hsv2, Effect of bendrofluazide (High multiplicity of infection): ++ (40% inhibition)
Inhibition of hsv2, Effect of bendrofluazide (Low multiplicity of infection): ++++ (80% inhibition)
Inhibition of hsv2, Effect of bendrofluazide (Medium multiplicity of infection): ++++ (80% inhibition)

NS(=O)(=O)c1cc(C(=O)O)c(NCc2ccco2)cc1Cl [frusemide, 4-chloro-N-furfuryl-5-sulfamoylanthranilic acid]
inhibition at 1000 µg/mL (Human alphaherpesvirus 2, read-out: Inhibition of hsv2, Effect of frusemide, High multiplicity of infection): 0%
inhibition at 1000 µg/mL (Human alphaherpesvirus 2, read-out: Inhibition of hsv2, Effect of frusemide, Low multiplicity of infection): 40%
inhibition at 1000 µg/mL (Human alphaherpesvirus 2, read-out: Inhibition of hsv2, Effect of frusemide, Medium multiplicity of infection): 40%

CCCCNC(=O)NS(=O)(=O)c1ccc(C)cc1 [tolbutamide]
Inhibition of hsv2, effect of tolbutamide (High multiplicity of infection, 0.5 mg tolbutamide/ml liquid medium): + (20% inhibition)
Inhibition of hsv2, effect of tolbutamide (High multiplicity of infection, 5 mg tolbutamide/ml liquid medium): ++ (40% inhibition)
Inhibition of hsv2, effect of tolbutamide (High multiplicity of infection, 50 mg tolbutamide/ml liquid medium): +++ (60% inhibition)
Inhibition of hsv2, effect of tolbutamide (Low multiplicity of infection, 0.5 mg tolbutamide/ml liquid medium): ++ (40% inhibition)
Inhibition of hsv2, effect of tolbutamide (Low multiplicity of infection, 5 mg tolbutamide/ml liquid medium): +++ (60% inhibition)
Inhibition of hsv2, effect of tolbutamide (Low multiplicity of infection, 50 mg tolbutamide/ml liquid medium): +++++ (100% inhibition)
Inhibition of hsv2, effect of tolbutamide (Medium multiplicity of infection, 0.5 mg tolbutamide/ml liquid medium): + (20% inhibition)
Inhibition of hsv2, effect of tolbutamide (Medium multiplicity of infection, 5 mg tolbutamide/ml liquid medium): +++ (60% inhibition)
Inhibition of hsv2, effect of tolbutamide (Medium multiplicity of infection, 50 mg tolbutamide/ml liquid medium): ++++ (80% inhibition)
